The nature of this series: GHS categories as the set defines them, by LD50: 1 up to 5, 2 up to 50, 3 up to 300, 4 up to 2000, 5 above 2000 mg/kg. The note with it: rat; in vivo; po.

SMILES strings stand for the structures.

`CC#CCC(C)[C@H](O)/C=C/C1[C@H](O)C[C@@H]2C/C(=C\CCCC(=O)O)C[C@H]12` (stereo partly specified): the GHS category worked out at 3.

The molecule `Cc1ccc(N=Nc2c(O)c(C(=O)O)cc3ccccc23)c(S(=O)(=O)O)c1` displayed a GHS category of 5.

As to `CCCCCCCCCCCC`, the GHS category is listed as 5.

In the case of `Oc1ccc2c(c1)CCN(c1ccccc1)C2c1ccc(F)cc1` (stereo unspecified), the GHS category was found to be 4.

`O=C(Nc1cc(Cl)c(NC(=O)c2cc3ccccc3c(N=Nc3cc(Cl)ccc3Cl)c2O)cc1Cl)c1cc2ccccc2c(N=Nc2cc(Cl)ccc2Cl)c1O` yielded a GHS category of 5.

In the case of `CCC(=O)OC1CC2CC1C1CC=CC21` (stereo unspecified), the GHS category was 5.

With `CCCC(C)c1ccc(OCC(=O)Cl)c(C(C)CCC)c1` (stereo unspecified), the GHS category was 5.

`C[C@@H]1[C@H](O)[C@@H](C)C=CC=CC=CC=CC=CC=CC=C[C@H](O[C@@H]2O[C@H](C)[C@@H](O)[C@H](N)[C@@H]2O)C[C@@H]2O[C@](O)(C[C@@H](O)C[C@@H](O)[C@H](O)CC[C@@H](O)C[C@@H](O)CC(=O)O[C@H]1C)C[C@H](O)[C@H]2C(=O)O` displayed a GHS category of 5.

On to `CNC(=O)C(=NNc1ccc(Cl)c(Cl)c1)C(C)=O`, for which the GHS category worked out at 5.

In the case of `CCCCCCC(C)(C)c1cc(O)c2c(c1)OC(C)(C)[C@@H]1CCC(=O)C[C@@H]21`, the GHS category was determined as 4.

`CCOC(=O)c1cc(Cl)ccc1OC(N)=O` displayed a GHS category of 5.

Consider `O=S1OCC(CCl)O1` (stereo unspecified), for which the GHS category is reported as 2.

For the molecule `NC(=O)c1ccc(NC(=O)c2ccc(N)cc2)cc1`, the GHS category was 5.

In turn, `NC(N)=NCc1ccc2c(c1)OCCO2` showed a GHS category of 5.

Take `CC=CC=CCOC(=O)CCC`: the GHS category amounted to 5.

Molecule `CC(C)C[Si](Cl)(Cl)Cl` yielded a GHS category of 3.

In turn, `CCOc1ccccc1C(=N)N` gave a GHS category of 4.

`COc1ccc(OC(=O)c2ccccc2OC(N)=O)cc1` had a GHS category of 5.

Consider `CC1=C(/C=C/C(C)=C/C=C/C(C)=C\C(=O)O)C(C)(C)CCC1`, for which the GHS category is 5.

As to `CC(=O)CCC=C(C)CCC=C(C)C`, the GHS category was found to be 5.

As to `Cc1cc(C(F)(C(F)(F)F)C(F)(F)F)ccc1NC(=O)c1cccc(I)c1C(=O)NC(C)(C)CS(C)(=O)=O`, the GHS category was 5.

For `CC(C)=CCC/C(C)=C/COCC=O`, the GHS category was 5.

`Cc1ccc(C2CC(=O)C(C(=O)CCc3ccc4c(c3)OCO4)C(=O)C2)cc1` (stereo unspecified): the GHS category is recorded as 5.

As for `O=C(Nc1ccccc1)N(Cc1ccc(Cl)cc1)C1CCCC1`, the GHS category is 5.

`CC(C)(CO)C(O)C(=O)NCCC(=O)NCCSSCCNC(=O)CCNC(=O)C(O)C(C)(C)CO` (stereo unspecified): the GHS category is given as 5.

`Nc1nc(C2CC2)nc(C(=O)O)c1Cl` registered a GHS category of 5.

Molecule `O=C(O)CNC(=O)c1ccco1` showed a GHS category of 5.

Molecule `Cc1cccc(C)c1OP(=O)(Oc1cccc(OP(=O)(Oc2c(C)cccc2C)Oc2c(C)cccc2C)c1)Oc1c(C)cccc1C` had a GHS category of 5.

Regarding `CC(=O)OCC1=C(C(=O)O)N2C(=O)C(NC(=O)Cc3cccs3)C2SC1` (stereo unspecified), the GHS category is 5.

As for `Cc1ccn2c(=O)c(C(=O)NC3CCCC3)cnc2c1`, the GHS category came to 3.

Molecule `COCC1COC(Cn2cncn2)(c2cc3cc(Cl)cc(Cl)c3o2)O1` (stereo unspecified) came in with a GHS category of 4.

`OC[C@H]1O[C@@H](n2cnc3c(O)ncnc32)[C@H](O)[C@@H]1O` registered a GHS category of 5.

Turning to `CC/C(=C(/CC)c1ccc(O)cc1)c1ccc(O)cc1`, the GHS category is listed as 5.

`COC(=O)c1ccc(C(F)(F)F)nc1S(=O)(=O)NC(=O)Nc1nc(OC)cc(OC)n1`: the GHS category was found to be 5.

`CCOP(=O)(CC(=O)Nc1cc2c(Nc3ccc(F)c(Cl)c3)ncnc2cc1O[C@H]1CCOC1)OCC` registered a GHS category of 5.

In turn, `C[C@@H]1CCO[C@@](Cn2cncn2)(c2cc3ccccc3o2)O1` returned a GHS category of 4.

Regarding `CC(Oc1ccc(Oc2ncc(C(F)(F)F)cc2Cl)cc1)C(=O)O` (stereo unspecified), the GHS category worked out at 4.

With `CC(=O)c1ccc2c(c1)oc(=O)n2C`, the GHS category came to 5.

Consider `CCOC(=O)C1(OC(=O)Cc2ccc(Cl)cc2Cl)CCCCC1`, for which the GHS category is listed as 5.

As for `CC(C)=CCCC(C)=CC1OCCO1`, the GHS category was 5.

For `COC(=O)c1cc(Oc2ccc(C(=O)OC)cc2N)cc(C(=O)OC)c1`, the GHS category was 5.

Molecule `CC(C)N1C2CCC1CC(OC(=O)C(CO)c1ccccc1)C2` (stereo unspecified) showed a GHS category of 4.

In turn, `Cc1cccc2ncc(C(=O)NC3CC3)c(=O)n12` displayed a GHS category of 3.

The molecule `NC(=O)Oc1ccc(Cl)cc1C(=O)Oc1ccccc1` returned a GHS category of 5.

As for `COc1cc(NS(=O)(=O)c2ccc(N)cc2)ncn1`, the GHS category is given as 5.

Regarding `C[C@]12CC[C@@H]3c4ccc(O)cc4CC[C@H]3[C@@H]1C[C@@H](O)[C@@H]2O`, the GHS category is 5.

Turning to `COC(=O)c1c(C)nc(C)c(C(=O)O)c1-c1cc([N+](=O)[O-])ccc1F`, the GHS category was determined as 5.

In turn, `CCOC(=O)C(F)C(C)=O` (stereo unspecified) registered a GHS category of 3.

As to `CCOC(=O)C(=O)Nc1cc(OCCOC)ncn1`, the GHS category is given as 4.

As to `CCO[Si](OCC)(OCC)N(CC)CC`, the GHS category amounted to 4.

On to `CCOC(=O)C(C)O` (stereo unspecified), for which the GHS category worked out at 5.

Turning to `CCC(C(=O)Oc1cc(C)ccc1C(C)C)c1ccc(-c2ccccc2)cc1` (stereo unspecified), the GHS category came out at 5.

Regarding `CCCCCCC(C)O` (stereo unspecified), the GHS category was 5.

In turn, `Clc1ccccc1-c1nnc(-c2ccccc2Cl)nn1` showed a GHS category of 5.

Molecule `CN1OCCC(=Cc2cc(C(C)(C)C)c(O)c(C(C)(C)C)c2)C1=O` returned a GHS category of 4.

For `CCCCc1c(Cc2ccc(-c3ccccc3-c3nn[nH]n3)cc2)c(=O)nc2nc(C)[nH]n12`, the GHS category was 4.

Regarding `COc1c(C)c(O)c(C)c(C)c1C(=O)Oc1c(C)c(C)c(C(=O)Oc2c(C)c(C)c(C(=O)O)c(OC)c2C)c(O)c1C`, the GHS category is given as 4.

`C[Si](C)(CCCN)N1CCC[Si]1(C)C` yielded a GHS category of 4.

In turn, `CC(C)(O)C(=O)c1ccc(Cc2ccc(C(=O)C(C)(C)O)cc2)cc1` had a GHS category of 5.

In the case of `CC(C#N)c1cccc(C(=O)Cl)c1` (stereo unspecified), the GHS category was 5.

`O=C[C@H](O[C@@H](C=O)[C@@H](O)[C@H](O)[C@H](O)CO)[C@@H](O)[C@H](O)[C@H](O)CO` registered a GHS category of 5.

`C=CC(=O)O[Si](C(C)C)(C(C)C)C(C)C` registered a GHS category of 5.

On to `CCNc1nc(Nc2ccccc2)nc(Nc2ccc(C=Cc3ccc(Nc4nc(NCC)nc(Nc5ccccc5)n4)cc3S(=O)(=O)O)c(S(=O)(=O)O)c2)n1`, for which the GHS category stood at 5.

Regarding `CCCCCCOC(=O)CC`, the GHS category is 5.

Turning to `C=C(C)C(=O)OCC[N+](C)(C)C`, the GHS category is given as 5.

`C1C2CC3CC1CC(C2)C3`: the GHS category came out at 5.

Molecule `NC(=O)[C@@H]1C[C@]2(NC(=O)NC2=O)c2cc(F)ccc2O1` registered a GHS category of 5.

Take `CC(C)(Sc1cc(C(C)(C)C)c(O)c(C(C)(C)C)c1)Sc1cc(C(C)(C)C)c(O)c(C(C)(C)C)c1`: the GHS category was 5.

Regarding `Nc1c[n+](N2CCOCC2)no1`, the GHS category came to 4.

For `COc1ccccc1C1NC(=O)C(C)S1` (stereo unspecified), the GHS category came to 5.

`CC(=O)c1ccc2c(c1)OCC(=O)N2C`: the GHS category amounted to 5.

The record behind these values is the CATMoS acute toxicity set (Mansouri et al. 2021).
